Data published in patent publication US7498046B2, “Composition for inducing immune response comprising inverted microsomes” (Queen Mary & Westfield College, priority 2003, dated 2009).

Experiments:
H2-Kb molecules = target: T1, H2-Kb molecules (Mus musculus, UniProt P01901); assay: Photo-crosslinking peptide binding assay of 125I-labelled ANB-NOS-OVA peptide to H2-Kb in microsomes or on the surface of RAW309Cr.1 cells; set-up: species or system murine; conditions: competitor at the concentration of report peptides
T1 construct: incubated with microsomes of RAW309Cr.1 and living RAW309Cr.1 cells under UV irradiation; endogenous in cells; host or cells: RAW309Cr.1 murine macrophage cell line (purified ER microsomes, or living cells)
T1 sequence (P01901 22-369): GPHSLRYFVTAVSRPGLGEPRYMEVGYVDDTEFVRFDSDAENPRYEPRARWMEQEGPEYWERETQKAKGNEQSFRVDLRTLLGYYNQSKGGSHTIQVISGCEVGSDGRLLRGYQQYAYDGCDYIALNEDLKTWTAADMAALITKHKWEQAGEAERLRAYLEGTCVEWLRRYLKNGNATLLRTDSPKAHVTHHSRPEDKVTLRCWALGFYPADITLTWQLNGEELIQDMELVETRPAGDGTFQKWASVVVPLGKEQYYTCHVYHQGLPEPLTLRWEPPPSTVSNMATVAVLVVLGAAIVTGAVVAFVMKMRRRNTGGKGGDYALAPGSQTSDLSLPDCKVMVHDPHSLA
T1 sequence (P01887 21-119 partner): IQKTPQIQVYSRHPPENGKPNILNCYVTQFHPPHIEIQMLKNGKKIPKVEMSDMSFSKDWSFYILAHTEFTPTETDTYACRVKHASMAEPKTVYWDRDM
Method: Peptide OVA 257-264 (SIINFEKL) was modified by substitution of third residue isoleucine to tyrosine in order for iodination and by covalently coupling a phenylazide with a nitro group on the ε-amino group of lysine at position seven. This nitro group can be photoactivated. The crosslinker modification was performed by mixing 0.5 mg of ANB-NOS (N-5-azido-2-nitrobenzoyloxysuccinimide) in 200 μl DMSO with 100 μg peptide in 100 μl PBS and 50 μl CPAS (3-[cyclohexylamino]-1-propanesulfonic acid) (0.5 M, pH 10). The reaction was allowed to proceed for 30 min on ice. To remove the excess ANB-NOS and ions, the mixture was purified by gel filtration on Sephadex G-10 and subsequently by HPLC. […]
To detect the peptide-receptive MHC class I molecules in the microsomal membranes, a crosslinker (ANB-NOS) was conjugated to the ε-amino group of the lysine residue of an H2-Kb-binding ovalbumin (OVA) peptide (residues 257-264, SIINFEKL) and substituted the isoleucine at position 3 with tyrosine to allow for iodination. […] For a quantitative comparison of peptide-receptive H2-Kb in microsomes and on cell surface of living RAW309Cr.1, the modified OVA peptide was labelled by ^125I and incubated with microsomes of RAW309Cr.1 and living RAW309Cr.1 cells under UV irradiation. Peptide-bound H2-Kb molecules were subsequently analysed by immunoprecipitation with an anti-H2 antibody Y3.

B3Z T cell hybridoma = assay: Activation of B3Z T cell hybridoma (LacZ activity, IL-2 ELISA); assay type: cell-based; conditions: soluble peptide
Method: Microsomes from 2×10^5 RAW309Cr.1 cells were used to load OVA or Ld-specific peptide as described in Material and Methods. 2×10^5 RAW309Cr.1 cells were pulsed with OVA peptide (see Material and Methods). After washing, peptide-pulsed 2×10^5 RAW309Cr.1 cells, OVA-loaded microsomes, Ld-peptide loaded microsomes, and the microsomes without peptide were co-cultured with 10^5 B3Z cells for over night. A) After washing with PBS, LacZ activity in B3Z cells was assayed by total cellular lysates with the LacZ substrate ONPG. The absorbance ([…]) was read after incubation for four hours at 37° C. B3Z cells cultured with 100 nM OVA peptide and normal medium were used as positive and negative control for the B3Z stimulation. B) The supernatants of these cultures were submitted for measuring IL-2 production by ELISA. The experiment was repeated four times with similar results. Error bars indicate the SEM of triplicate cultures. […]
The prepared stimuli including peptide-edited microsomes, peptide-pulsed RAW309Cr.1 cells, OVA peptide, were added to culture of 10^5 B3Z cells in a total of 200 μl. […] The linear range of OVA-response was determined by the addition of serial dilutions of SIINFEKL to the medium due to that the B3Z cells themselves express Kb and present SIINFEKL.

[1] = tested on: T cells isolated from spleens; assay: In vivo immunisation of C57BL/6 mice, spleen T cells cross-stimulated in vitro (proliferation, IL-2); conditions: C57BL/6, injected twice subcutaneously, one week interval, T cells six days after second injection
Excerpt: C57BL/6 (H-2b) mice were primed […]. by OVA-edited microsomes or Ld-peptide loaded microsomes or OVA peptide or OVA-pulsed RAW309Cr.1 cells and challenged by same stimulus after seven days. Six days after the challenge, enriched T cells were isolated from spleens and cultured at 10^5 cells/well with stimulus indicated. The RAW309Cr.1 cells were irradiated before co-culture with T cells. After three days, supernatants were harvested for cytokine ELISA (b) and cultures pulsed with [^3H]thymidine (a). The results are representative of groups of at least three mice per treatment group and the experiment was repeated four times with similar results. Error bars indicate the SEM of triplicate cultures. Similar set of experiments performed in Balb/c (H-2d) mice served as negative control.
To further examine the ability of OVA-edited microsomes to induce immune responses in vivo, OVA-edited microsomes from RAW309Cr.1 cells, microsomes loaded with Ld-specific peptide, soluble OVA peptides, RAW309Cr.1 pulsed with OVA peptides and PBS were used to induce immune response in vivo. Five groups of C57BL/6 or Balb/c mice, each group consisting of five mice, were injected twice subcutaneously with above stimuli, respectively. The interval between injections was one week. […]

SIINFEKL [OVA peptide] was tested, and the “Competition of the labelled report OVA peptide binding to Kb” value (H2-Kb molecules) was 50%, the “IL-2 production by B3Z cells” value (B3Z T cell hybridoma) was “could induce IL-2 production” and the “Induction of T cell responses by the immunising stimulus (proliferation of spleen T cells)” value [1] was “responded to OVA-edited microsomes in vitro”.
